Data taken from patent US12186328B2, “Use of CSA compounds to stimulate stem cells and hair growth” (Brigham Young University, priority 2019, dated 2025).

Columns and labels:
[1] = test system: hair loss associated with a dermal fungal infection; experiment: Horse with "summer itch" hair loss treated with a composition including CSA-44; format: in vivo
Source text: A treatment composition including CSA-44 was applied to a horse having a “summer itch” condition associated with a dermal fungal infection. […] As shown, the subject horse had several patches of visible hair loss. […] As shown, hair had regrown to completely fill in the previous patches and the regrown hair was thick and full. Typical time for hair to grow back on a horse following treatment of such a fungal infection is approximately 28 days. The CSA-based treatment therefore regenerated hair growth 1.56 times faster than a conventional treatment.

[2] = test system: hair growth on depilated dorsal skin of C57BL/6 mice; experiment: Mouse model of hair regrowth after shaving and depilation, topical CSA-44 cream; format: in vivo, mice (C57BL/6); settings: for Percentage Change in Hair growth: Day 21, compared with vehicle treated control group; for Hair growth scoring Day 1 / Hair growth scoring Day 3 / Hair growth scoring Day 7 / Hair growth scoring Day 10 / Hair growth scoring Day 14 / Hair growth scoring Day 17: Mean ± SE, n = 8, score 0-10
Source text: A mouse model was used to test the effectiveness of a CSA-based treatment composition in stimulating stem cells and regenerating hair growth. Male C57BL/6 mice aged 8 weeks, were housed under environmentally monitored conditions and were fed a standard rodent diet. The hair on the dorsal surface of each mouse was shaved with an animal clipper, which was then followed by application of a depilatory cream to clean the remaining hair as described by Jung M K et al (Life Sci. 2015 May 1; 128:39-46). The mice were then allowed to rest for 24 h.
On the day of experiment, all the animals were weighed and randomized into different treatment groups (n=8) according to body weight. Randomized animals were identified by individual animal marking and cage cards were used for group identification.
The animals of Group 1, the control mice, were treated topically with the cream-based vehicle. The animals of Group 2 were treated topically with 100 mg of […] once daily for 3 weeks. The animals in Group 3 were treated topically with 100 mg of 2.0% CSA-44 test compound once every other day for 3 weeks.
A preliminary tolerability study was conducted in C57BL/6 mice for selecting an appropriate well tolerated dose for the present efficacy study. Based on the results from the preliminary dose tolerability study, 100 mg of a formulation containing 0.5% CSA-44 was uniformly applied topically on the shaven areas of the dorsal skin once daily for 3 weeks. Similarly, 100 mg of 2% CSA-44 formulation was applied topically every other day for 3 weeks. 100 mg of cream vehicle was applied topically on the shaved areas once daily for 3 weeks.
The hair-growth score was evaluated using the scoring pattern below as described by Vegesna et al (Endocrinology 143(11):4389-4396). A score of ‘0’ indicates no change in the amount of hair growth compared with the hair-loss induction day and a score of ‘10’ indicates full hair growth on the entire site on the dorsal skin. Darkening and hair-growth rate was monitored twice weekly for 3 weeks. Images of the dorsal skin of the mice were captured using a digital camera at weekly intervals to notice the start of hair regrowth period and the hair regrowth pattern.
Body weight of the animals were recorded once prior to randomization (pre dose) and twice weekly during the course of the study. All animals were observed once daily for clinical signs and twice daily (morning and evening) for mortality and morbidity. No mortality was observed during the study period. Animals were sacrificed at the end of the study period by following a standard protocol using CO2 induced euthanasia. Results
Hair growth score and body weight were recorded twice weekly during the study period. The percentage (%) change in hair growth was calculated on Day 21 by comparing the treated mice with the vehicle treated control group.

[3] = 0.5% CSA-44, topical, once daily for 3 weeks
[4] = 2% CSA-44, topical, once every other day for 3 weeks

With `CCCCCCCCOC(=O)CC[C@@H](C)[C@H]1CC[C@H]2[C@@H]3[C@H](OC(=O)CCN)C[C@@H]4C[C@H](OC(=O)CCN)CC[C@]4(C)[C@H]3C[C@H](OC(=O)CCN)[C@]12C` [CSA-44] the “Hair growth regeneration speed versus conventional treatment” value ([1]; 18 days versus typical approximately 28 days) was 1.56 times faster, the “Treatment time after which hair had regrown to completely fill in the previous patches” value ([1]; horse, composition including CSA-44) was 18 days and the “Percentage Change in Hair growth” value [2, 3] was 72%. For the same molecule, the “Hair growth scoring Day 1” value [2, 3] was 0.00, the “Hair growth scoring Day 3” value [2, 3] was 0.25 and the “Hair growth scoring Day 7” value [2, 3] was 0.50. The “Hair growth scoring Day 10” value [2, 3] was 1.38, the “Hair growth scoring Day 14” value [2, 3] was 2.63 and the “Hair growth scoring Day 17” value [2, 3] was 4.88. The “Percentage Change in Hair growth” value [2, 4] was 66%, the “Hair growth scoring Day 1” value [2, 4] was 0.00 and the “Hair growth scoring Day 3” value [2, 4] was 0.38. The “Hair growth scoring Day 7” value [2, 4] was 0.50, the “Hair growth scoring Day 10” value [2, 4] was 1.50 and the “Hair growth scoring Day 14” value [2, 4] was 2.50. For the same molecule, the “Hair growth scoring Day 17” value [2, 4] was 4.13 and the “Skin area with black hair compared with control group” value ([2]; CSA-44 treated groups, end of 3 weeks) was “larger”.
